Results on six molecules are retold here after patent US20160108049A1 (TAKEDA Gmbh, priority 2011, published 2016).

The target in one test is T1, human PDE5 (Homo sapiens, UniProt O76074).
T1 construct: from tissue; host or cells: human platelets from fresh donor blood (platelet lysate)
The test can be described thus: Inhibition of PDE5 activity (platelet lysate, SPA assay). Type of test: biochemical. The following applies: 0.5 μM cGMP, read-out: PDE5 Inhibitory values measured as -logIC50 (converted). A digest of the protocol:
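Human platelet lysate (10,000 g supernatant) served as PDE5 source, with 1 μM motapizone and 10 nM PDE2 inhibitor added, in Tris pH 7.4, 5 mM Mg2+, BSA. Substrate 0.5 μM [3H]cGMP, 10–20% conversion; 5 min preincubation then 15 min at 37 °C, stopped by SPA beads with IBMX. IC50 by non-linear regression.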

For the next test, the target named is T2, PDE4B1 (Homo sapiens, UniProt Q07343).
T2 construct: made in house; host or cells: SF21 insect cells (baculovirus; virus made in SF9 cells, pCR-Bac vector)
T2 sequence (Q07343 whole entry): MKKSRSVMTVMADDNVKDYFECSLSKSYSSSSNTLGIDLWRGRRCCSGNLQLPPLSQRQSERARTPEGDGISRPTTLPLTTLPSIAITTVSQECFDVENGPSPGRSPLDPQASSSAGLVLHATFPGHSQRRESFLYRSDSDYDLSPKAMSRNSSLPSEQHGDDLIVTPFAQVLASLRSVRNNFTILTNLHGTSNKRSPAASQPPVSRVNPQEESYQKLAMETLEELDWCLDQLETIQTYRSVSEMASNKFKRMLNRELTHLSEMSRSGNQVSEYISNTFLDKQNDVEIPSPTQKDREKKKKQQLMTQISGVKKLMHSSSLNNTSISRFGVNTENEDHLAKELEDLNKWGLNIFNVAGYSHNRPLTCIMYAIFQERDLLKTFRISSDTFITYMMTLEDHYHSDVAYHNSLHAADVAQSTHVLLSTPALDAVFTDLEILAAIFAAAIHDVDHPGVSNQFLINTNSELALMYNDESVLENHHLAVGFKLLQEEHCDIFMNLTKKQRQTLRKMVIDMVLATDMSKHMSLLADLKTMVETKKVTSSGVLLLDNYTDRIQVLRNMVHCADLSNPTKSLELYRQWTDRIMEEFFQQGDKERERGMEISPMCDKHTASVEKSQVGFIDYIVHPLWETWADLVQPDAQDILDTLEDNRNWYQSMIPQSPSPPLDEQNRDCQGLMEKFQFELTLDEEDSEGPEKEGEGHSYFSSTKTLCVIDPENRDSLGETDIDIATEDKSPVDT
The test can be described thus: Inhibition of PDE4 activity (PDE4B1, SPA assay). The format is biochemical. To be noted: recombinant PDE4B1, 0.5 μM cAMP; read-out: PDE4B1 Inhibitory values measured as -logIC50 (converted). A digest of the protocol: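 Baculovirus-expressed enzyme from SF21 cell 1000×g supernatant; substrate 0.5 μM [3H]cAMP in 20 mM Tris pH 7.4, 5 mM Mg2+, 0.1 mg/ml BSA, 10-20% conversion. 5 min preincubation at 37 °C, 15 min reaction, stopped by SPA beads with IBMX; IC50 by non-linear regression.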

As to `COc1ccc(C2=NN(C3CCN(C(=O)[C@@H](Cc4ccc(N5CCC5=O)cc4)NC(=O)c4c[nH]c5c(-c6c(OCC7CC7)ccc7c6OCO7)ncnc45)CC3)C(=O)[C@@H]3CCCC[C@H]23)cc1OC` [Example 112, 4-[5-(cyclopropylmethoxy)-1,3-benzodioxol-4-yl]-N-{(2R)-1-{4-[(4aS,8aR)-4-(3,4-dimethoxyphenyl)-1-oxo-4a,5,6,7,8,8a-hexahydrophthalazin-2(1H)-yl]piperidin-1-yl}-1-oxo-3-[4-(2-oxoazetidin-1-yl)phenyl]propan-2-yl}-5H-pyrrolo[3,2-d]pyrimidine-7-carboxamide], the IC50 at human PDE5 and on PDE4B1 was less than 1 nM throughout.

`COc1ccc(C2=NN(C3CCN(C(=O)[C@@H](Cc4ccc(N5CCCC5=O)cc4)NC(=O)c4c[nH]c5c(-c6c(OCC7CC7)ccc7c6OCO7)ncnc45)CC3)C(=O)[C@@H]3CCCC[C@H]23)cc1OC` [Example 113, 4-[5-(cyclopropylmethoxy)-1,3-benzodioxol-4-yl]-N-{(2R)-1-{4-[(4aS,8aR)-4-(3,4-dimethoxyphenyl)-1-oxo-4a,5,6,7,8,8a-hexahydrophthalazin-2(1H)-yl]piperidin-1-yl}-1-oxo-3-[4-(2-oxopyrrolidin-1-yl)phenyl]propan-2-yl}-5H-pyrrolo[3,2-d]pyrimidine-7-carboxamide]: the IC50 on human PDE5 and at PDE4B1 was less than 1 nM throughout.

As for `COc1ccc(C2=NN(C3CCN(C(=O)[C@H](Cc4cccnc4)NC(=O)c4c[nH]c5c(-c6c(OCC7CC7)ccc7c6OCO7)ncnc45)CC3)C(=O)C(C)(C)C2)c2c1OC(C)(C)C2` [Example 114, 4-[5-(cyclopropylmethoxy)-1,3-benzodioxol-4-yl]-N-[(2S)-1-{4-[3-(7-methoxy-2,2-dimethyl-2,3-dihydro-1-benzofuran-4-yl)-5,5-dimethyl-6-oxo-5,6-dihydropyridazin-1(4H)-yl]piperidin-1-yl}-1-oxo-3-(pyridin-3-yl)propan-2-yl]-5H-pyrrolo[3,2-d]pyrimidine-7-carboxamide], the IC50 is less than 1 nM at human PDE5 and 1 to 10 nM on PDE4B1.

For `COc1ccc(C2=NN(C3CCN(C(=O)[C@@H](Cc4ccccc4)NC(=O)c4c[nH]c5c(-c6c(OCC7CC7)ccc7c6OCO7)ncnc45)CC3)C(=O)C(C)(C)C2)c2c1OC(C)(C)C2` [Example 115], the IC50 was 1 to 10 nM at human PDE5 and less than 1 nM on PDE4B1.

For `CCC1(CC)CC(c2ccc(OC)c(OC)c2)=NN(C2CCN(C(=O)[C@@H](Cc3ccccc3)NC(=O)c3c[nH]c4c(-c5c(OCC6CC6)ccc6c5OCO6)ncnc34)CC2)C1=O` [Example 116, 4-[5-(cyclopropylmethoxy)-1,3-benzodioxol-4-yl]-N-[(2R)-1-{4-[3-(3,4-dimethoxyphenyl)-5,5-diethyl-6-oxo-5,6-dihydropyridazin-1(4H)-yl]piperidin-1-yl}-1-oxo-3-phenylpropan-2-yl]-5H-pyrrolo[3,2-d]pyrimidine-7-carboxamide], the IC50 at human PDE5 and on PDE4B1 was 1 to 10 nM in each case.

For `COc1ccc(C2=NN(C3CCN(C(=O)CNC(=O)c4c[nH]c5c(-c6c(OCC7CC7)ccc7c6OCO7)ncnc45)CC3)C(=O)C(C)(C)C2)c2c1OC(C)(C)C2` [Example 117, 4-[5-(cyclopropylmethoxy)-1,3-benzodioxol-4-yl]-N-(2-{4-[3-(7-methoxy-2,2-dimethyl-2,3-dihydro-1-benzofuran-4-yl)-5,5-dimethyl-6-oxo-5,6-dihydropyridazin-1(4H)-yl]piperidin-1-yl}-2-oxoethyl)-5H-pyrrolo[3,2-d]pyrimidine-7-carboxamide], the IC50 at human PDE5 and at PDE4B1 was 1 to 10 nM in each case.
